For one test, the target named is T1, HiBit-BRG1 (Homo sapiens, UniProt P51532).
T1 construct: expressed in transfected cells
In words: HiBit-BRG1 cell-based degradation assay (Nano-Glo HiBiT Lytic Detection). Particulars: HeLa cells expressing HiBit-BRG1 and LgBit, 24 h; for DC50: read-out: BRG1 HiBit Degradation IC50; for Dmax: read-out: BRG1 HiBit Degradation Maximum (%). How it is done:
(§1) Procedure: A stable HeLa cell line expressing HiBiT-BRM was generated. On day 0, 5000 cells were seeded in 40 μL of media into each well of 384-well cell culture plates. […] Subsequently plates were incubated for 24 h in a standard tissue culture incubator and equilibrated at room temperature for 15 minutes. Nano-Glo HiBiT Lytic Detection System (Promega N3050) reagent was freshly prepared and 20 ul was added to each well. Upon addition of this LgBit-containing reagent, the HiBiT and LgBiT proteins associate to form the luminescent NanoBiT luciferase. The plates were shaken for 10 minutes at room temperature and the bioluminescence read using an EnVision plate reader (PerkinElmer).
For measurement of BRG1 degradation, a stable HeLa cell line expressing HiBit-BRG1 and LgBit was generated. The same protocol as above was then followed.
(§2) The degradation % was calculated using the following formula: % degradation=100%−100%×(LumSample−LumLC)/(LumHC−LumLC). DMSO treated cells are employed as High Control (HC) and 2 μM of a known BRM/BRG1 degrader standard treated cells are employed as Low Control (LC).
(In general: The HiBiT peptide binds its large partner to form an active luciferase.)

The target of a further test is T2, HiBiT-BRM (Homo sapiens, UniProt P51531).
T2 construct: expressed in transfected cells
T2 sequence (P51531 whole entry): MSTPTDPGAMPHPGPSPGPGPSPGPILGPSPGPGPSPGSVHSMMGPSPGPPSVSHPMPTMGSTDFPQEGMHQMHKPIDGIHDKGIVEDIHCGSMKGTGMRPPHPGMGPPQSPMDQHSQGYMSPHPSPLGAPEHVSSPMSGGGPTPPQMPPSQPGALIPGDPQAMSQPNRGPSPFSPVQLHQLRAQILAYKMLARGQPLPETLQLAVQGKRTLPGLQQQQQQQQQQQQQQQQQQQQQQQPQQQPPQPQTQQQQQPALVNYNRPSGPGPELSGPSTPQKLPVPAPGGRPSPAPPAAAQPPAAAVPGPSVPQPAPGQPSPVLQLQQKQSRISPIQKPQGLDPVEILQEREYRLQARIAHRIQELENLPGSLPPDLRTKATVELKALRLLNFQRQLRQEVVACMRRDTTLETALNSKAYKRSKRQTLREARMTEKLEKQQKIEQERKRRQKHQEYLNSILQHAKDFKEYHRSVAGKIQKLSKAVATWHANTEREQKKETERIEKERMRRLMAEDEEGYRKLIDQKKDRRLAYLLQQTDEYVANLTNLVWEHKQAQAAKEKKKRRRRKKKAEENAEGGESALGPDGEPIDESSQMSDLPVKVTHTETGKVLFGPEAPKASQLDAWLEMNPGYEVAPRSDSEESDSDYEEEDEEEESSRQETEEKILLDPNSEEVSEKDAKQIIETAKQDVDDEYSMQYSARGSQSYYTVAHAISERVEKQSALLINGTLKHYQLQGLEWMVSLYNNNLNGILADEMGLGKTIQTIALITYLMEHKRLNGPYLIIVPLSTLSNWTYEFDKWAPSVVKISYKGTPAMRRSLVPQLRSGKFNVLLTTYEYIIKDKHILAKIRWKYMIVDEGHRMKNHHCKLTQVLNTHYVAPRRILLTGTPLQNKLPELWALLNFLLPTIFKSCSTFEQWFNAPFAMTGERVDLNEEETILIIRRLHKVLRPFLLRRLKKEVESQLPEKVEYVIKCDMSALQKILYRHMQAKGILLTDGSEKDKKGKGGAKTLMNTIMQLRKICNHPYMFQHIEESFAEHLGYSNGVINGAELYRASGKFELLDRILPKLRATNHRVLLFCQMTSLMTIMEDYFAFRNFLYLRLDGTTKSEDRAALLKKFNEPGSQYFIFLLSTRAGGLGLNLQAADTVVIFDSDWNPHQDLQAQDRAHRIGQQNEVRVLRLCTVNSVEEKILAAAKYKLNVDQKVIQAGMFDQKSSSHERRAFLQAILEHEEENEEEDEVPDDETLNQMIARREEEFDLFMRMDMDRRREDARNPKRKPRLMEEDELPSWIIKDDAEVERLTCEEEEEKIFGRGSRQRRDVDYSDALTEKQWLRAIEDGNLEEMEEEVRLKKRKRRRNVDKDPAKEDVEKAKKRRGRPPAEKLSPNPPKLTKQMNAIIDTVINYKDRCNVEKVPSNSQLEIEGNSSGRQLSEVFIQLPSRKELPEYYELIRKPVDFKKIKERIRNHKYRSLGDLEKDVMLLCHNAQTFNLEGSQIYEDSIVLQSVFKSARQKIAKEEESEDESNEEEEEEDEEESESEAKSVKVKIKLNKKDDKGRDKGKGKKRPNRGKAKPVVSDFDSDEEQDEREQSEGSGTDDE
In words: HiBiT-BRM cell-based degradation assay (Nano-Glo HiBiT Lytic Detection). The note with it: HeLa cells expressing HiBiT-BRM, 24 h; for DC50: read-out: BRM HiBit Degradation IC50. How it is done:
as §1, §2

T1 sequence (P51532 whole entry): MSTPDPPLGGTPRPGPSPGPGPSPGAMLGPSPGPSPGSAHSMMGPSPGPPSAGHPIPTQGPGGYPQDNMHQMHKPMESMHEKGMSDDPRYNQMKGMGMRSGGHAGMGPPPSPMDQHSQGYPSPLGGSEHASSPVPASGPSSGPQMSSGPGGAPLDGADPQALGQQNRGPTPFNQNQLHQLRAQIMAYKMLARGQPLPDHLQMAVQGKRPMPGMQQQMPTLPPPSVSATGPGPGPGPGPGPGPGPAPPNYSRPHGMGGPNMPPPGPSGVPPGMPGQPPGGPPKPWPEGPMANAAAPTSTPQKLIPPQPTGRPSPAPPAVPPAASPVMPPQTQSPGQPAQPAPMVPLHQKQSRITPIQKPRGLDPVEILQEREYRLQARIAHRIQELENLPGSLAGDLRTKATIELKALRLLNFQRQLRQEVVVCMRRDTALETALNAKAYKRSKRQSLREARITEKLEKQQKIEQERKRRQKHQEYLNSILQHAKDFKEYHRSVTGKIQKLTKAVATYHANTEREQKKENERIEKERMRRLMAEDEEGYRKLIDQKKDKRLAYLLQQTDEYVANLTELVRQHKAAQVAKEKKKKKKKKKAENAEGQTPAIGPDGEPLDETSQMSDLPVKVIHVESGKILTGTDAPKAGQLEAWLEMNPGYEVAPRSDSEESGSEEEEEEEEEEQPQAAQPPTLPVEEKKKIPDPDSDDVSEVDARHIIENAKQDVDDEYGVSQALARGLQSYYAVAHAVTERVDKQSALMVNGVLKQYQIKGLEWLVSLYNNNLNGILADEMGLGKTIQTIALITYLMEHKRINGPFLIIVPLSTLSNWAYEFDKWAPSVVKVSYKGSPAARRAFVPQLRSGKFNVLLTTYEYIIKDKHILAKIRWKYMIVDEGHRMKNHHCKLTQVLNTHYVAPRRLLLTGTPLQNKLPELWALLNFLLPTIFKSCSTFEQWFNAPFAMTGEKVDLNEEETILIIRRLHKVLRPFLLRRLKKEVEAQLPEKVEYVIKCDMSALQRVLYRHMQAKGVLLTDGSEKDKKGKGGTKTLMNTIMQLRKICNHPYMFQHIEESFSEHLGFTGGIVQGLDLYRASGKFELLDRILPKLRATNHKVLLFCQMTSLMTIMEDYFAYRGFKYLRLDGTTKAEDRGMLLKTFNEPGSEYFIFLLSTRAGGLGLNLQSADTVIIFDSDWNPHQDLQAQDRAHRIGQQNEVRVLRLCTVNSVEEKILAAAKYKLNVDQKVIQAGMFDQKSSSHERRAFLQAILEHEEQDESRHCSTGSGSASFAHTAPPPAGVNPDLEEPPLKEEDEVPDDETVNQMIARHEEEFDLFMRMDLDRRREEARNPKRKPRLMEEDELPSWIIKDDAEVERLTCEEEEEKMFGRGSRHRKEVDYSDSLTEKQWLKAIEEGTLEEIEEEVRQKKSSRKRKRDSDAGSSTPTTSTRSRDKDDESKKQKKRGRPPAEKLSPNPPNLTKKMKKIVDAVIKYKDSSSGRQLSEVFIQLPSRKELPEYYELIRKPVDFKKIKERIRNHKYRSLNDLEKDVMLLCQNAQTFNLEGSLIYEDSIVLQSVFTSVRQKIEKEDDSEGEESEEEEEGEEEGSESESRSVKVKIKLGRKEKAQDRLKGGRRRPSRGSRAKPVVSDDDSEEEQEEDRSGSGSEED

As for `Cc1ncsc1-c1ccc([C@H](C)NC(=O)[C@@H]2C[C@@H](O)CN2C(=O)[C@@H](NC(=O)CCCCCCCCCCCCCC(=O)N(C)Cc2ccc(CCOc3cc(-c4ccccc4O)nnc3N)cc2)C(C)(C)C)cc1` [Compound 197, N1-(4-(2-((3-amino-6-(2-hydroxyphenyl)pyridazin-4-yl)oxy)ethyl)benzyl)-N15-((S)-1-((2S,4R)-4-hydroxy-2-(((S)-1-(4-(4-methylthiazol-5-yl)phenyl)ethyl)carbamoyl)pyrrolidin-1-yl)-3,3-dimethyl-1-oxobutan-2-yl)-N1-methylpentadecanediamide], at HiBit-BRG1, the DC50 was above 1000 nM and the Dmax is below 50%. Further, on HiBiT-BRM, the “BRM HiBit Degradation Maximum (%)” value is “A (“A” indicates maximum degradation ≥75%)” and the DC50 was above 10 nM.

With `Nc1nnc(-c2ccccc2O)cc1OCCc1ccc(CNC(=O)CCCCOc2ccc3c(c2)C(=O)N(C2CCC(=O)NC2=O)C3)cc1` (stereo not drawn) [Compound 128, N-(4-(2-((3-amino-6-(2-hydroxyphenyl)pyridazin-4-yl)oxy)ethyl)benzyl)-5-((2-(2,6-dioxopiperidin-3-yl)-3-oxoisoindolin-5-yl)oxy)pentanamide], the DC50 at HiBit-BRG1 was above 1000 nM. At HiBiT-BRM, the “BRM HiBit Degradation Maximum (%)” value is recorded as “C (“C” indicates maximum degradation <50%)” and the DC50 was above 1000 nM.

As to `Nc1nnc(-c2ccccc2O)cc1N1CCN(CC(=O)NCCCCCCCCNc2cccc3c2C(=O)N(C2CCC(=O)NC2=O)C3=O)CC1` (stereo not drawn) [Compound 95, 2-(4-(3-amino-6-(2-hydroxyphenyl)pyridazin-4-yl)piperazin-1-yl)-N-(8-((2-(2,6-dioxopiperidin-3-yl)-1,3-dioxoisoindolin-4-yl)amino)octyl)acetamide], at HiBit-BRG1, the DC50 is above 1000 nM and the Dmax was below 50%. At HiBiT-BRM, the “BRM HiBit Degradation Maximum (%)” value is listed as “C (“C” indicates maximum degradation <50%)” and the DC50 is above 1000 nM.

As to `Cc1ncsc1-c1ccc(CNC(=O)[C@@H]2C[C@@H](O)CN2C(=O)[C@@H](NC(=O)CCN2CC3(CN(CCC(=O)NCc4ccc(CCOc5cc(-c6ccccc6O)nnc5N)cc4)C3)C2)C(C)(C)C)cc1` [Compound 188, (2S,4R)-1-[(2S)-2-(3-[6-[2-([[4-(2-[[3-amino-6-(2-hydroxyphenyl)pyridazin-4-yl]oxy]ethyl)phenyl]methyl]carbamoyl)ethyl]-2,6-diazaspiro[3.3]heptan-2-yl]propanamido)-3,3-dimethylbutanoyl]-4-hydroxy-N-[[4-(4-methyl-1,3-thiazol-5-yl)phenyl]methyl]pyrrolidine-2-carboxamide], on HiBit-BRG1, the DC50 is above 1000 nM and the Dmax is below 50%. Besides, at HiBiT-BRM, the “BRM HiBit Degradation Maximum (%)” value was “C (“C” indicates maximum degradation <50%)” and the DC50 was above 1000 nM.

For the compound `Nc1nnc(-c2ccccc2O)cc1OCCc1ccc(CN2CC(N3CCN(c4cccc5c4C(=O)N(C4CCC(=O)NC4=O)C5=O)CC3)C2)cc1` (stereo not drawn) [Compound 143, 4-(4-(1-(4-(2-((3-amino-6-(2-hydroxyphenyl)pyridazin-4-yl)oxy)ethyl)benzyl)azetidin-3-yl)piperazin-1-yl)-2-(2,6-dioxopiperidin-3-yl)isoindoline-1,3-dione], on HiBit-BRG1, the DC50 was above 1000 nM and the Dmax is below 50%. Besides, at HiBiT-BRM, the “BRM HiBit Degradation Maximum (%)” value is reported as “C (“C” indicates maximum degradation <50%)” and the DC50 was above 1000 nM.

As to `Cc1ncsc1-c1ccc(CNC(=O)[C@@H]2C[C@@H](O)CN2C(=O)[C@@H](NC(=O)COCCOCCOCCNC(=O)CN2CCN(c3cc(-c4ccccc4O)nnc3N)CC2)C(C)(C)C)cc1` [Compound 86, (2S,4R)-1-[(2S)-2-[2-(2-[2-[2-(2-[4-[3-amino-6-(2-hydroxyphenyl)pyridazin-4-yl]piperazin-1-yl]acetamido)ethoxy]ethoxy]ethoxy)acetamido]-3,3-dimethylbutanoyl]-4-hydroxy-N-[[4-(4-methyl-1,3-thiazol-5-yl)phenyl]methyl]pyrrolidine-2-carboxamide], on HiBit-BRG1, the DC50 is above 1000 nM and the Dmax is below 50%. At HiBiT-BRM, the “BRM HiBit Degradation Maximum (%)” value is “C (“C” indicates maximum degradation <50%)” and the DC50 is above 1000 nM.

`Nc1nnc(-c2ccccc2O)cc1OCCc1ccc(C(=O)NCCCCCNc2ccc3c(c2)C(=O)N(C2CCC(=O)NC2=O)C3=O)cc1` (stereo not drawn) [Compound 51, 4-(2-[[3-amino-6-(2-hydroxyphenyl)pyridazin-4-yl]oxy]ethyl)-N-(5-[[2-(2,6-dioxopiperidin-3-yl)-1,3-dioxoisoindol-5-yl]amino]pentyl)benzamide]: at HiBit-BRG1, the DC50 was above 1000 nM and the Dmax was below 50%. For the same compound, at HiBiT-BRM, the “BRM HiBit Degradation Maximum (%)” value is given as “C (“C” indicates maximum degradation <50%)” and the DC50 is above 1000 nM.

Take `Cc1ncsc1-c1ccc([C@H](C)NC(=O)[C@@H]2C[C@@H](O)CN2C(=O)[C@@H](c2cc(OCCN3CCC(C(=O)NCc4ccc(CCOc5cc(-c6ccccc6O)nnc5N)cc4)CC3)no2)C(C)C)cc1` [Compound 176, N-(4-(2-((3-amino-6-(2-hydroxyphenyl)pyridazin-4-yl)oxy)ethyl)benzyl)-1-(2-((5-((R)-1-((2S,4R)-4-hydroxy-2-(((S)-1-(4-(4-methylthiazol-5-yl)phenyl)ethyl)carbamoyl)pyrrolidin-1-yl)-3-methyl-1-oxobutan-2-yl)isoxazol-3-yl)oxy)ethyl)piperidine-4-carboxamide]: at HiBit-BRG1, the DC50 was above 100 nM and the Dmax was above 75%. Moreover, at HiBiT-BRM, the “BRM HiBit Degradation Maximum (%)” value is on record as “A (“A” indicates maximum degradation ≥75%)” and the DC50 was above 10 nM.

On to `CCN(CCc1ccc(C(=O)NCCCCCCCCCC(=O)N[C@H](C(=O)N2C[C@H](O)C[C@H]2C(=O)NCc2ccc(-c3scnc3C)cc2)C(C)(C)C)cc1)c1cc(-c2ccccc2O)nnc1N` (racemic) [Compound 144, (2S,4R)-1-((S)-2-(10-(4-(2-((3-amino-6-(2-hydroxyphenyl)pyridazin-4-yl)(ethyl)amino)ethyl)benzamido)decanamido)-3,3-dimethylbutanoyl)-4-hydroxy-N-(4-(4-methylthiazol-5-yl)benzyl)pyrrolidine-2-carboxamide], for which, on HiBit-BRG1, the DC50 is above 1000 nM and the Dmax is below 50%. For the same compound, on HiBiT-BRM, the “BRM HiBit Degradation Maximum (%)” value is reported as “A (“A” indicates maximum degradation ≥75%)” and the DC50 was above 100 nM.

Turning to `Cc1ncsc1-c1ccc(CNC(=O)[C@@H]2C[C@@H](O)CN2C(=O)[C@@H](NC(=O)CCN2CC3=C(C2)CN(C(=O)c2ccc(CCOc4cc(-c5ccccc5O)nnc4N)cc2)C3)C(C)(C)C)cc1` [Compound 219, (2S,4R)-1-((S)-2-(3-(5-(4-(2-((3-amino-6-(2-hydroxyphenyl)pyridazin-4-yl)oxy)ethyl)benzoyl)-3,4,5,6-tetrahydropyrrolo[3,4-c]pyrrol-2(1H)-yl)propanamido)-3,3-dimethylbutanoyl)-4-hydroxy-N-(4-(4-methylthiazol-5-yl)benzyl)pyrrolidine-2-carboxamide], on HiBit-BRG1, the DC50 is above 1000 nM and the Dmax was below 50%. Besides, on HiBiT-BRM, the “BRM HiBit Degradation Maximum (%)” value is on record as “B (“B” indicates maximum degradation ≥50%)” and the DC50 is above 1000 nM.

For `Cc1ncsc1-c1ccc([C@H](C)NC(=O)[C@@H]2C[C@@H](O)CN2C(=O)[C@@H](c2cc(OCCN3CCC(O)(C(=O)NCc4ccc(CCOc5cc(-c6ccccc6O)nnc5N)cc4)CC3)no2)C(C)C)cc1` [Compound 206, N-[[4-(2-[[3-amino-6-(2-hydroxyphenyl)pyridazin-4-yl]oxy]ethyl)phenyl]methyl]-4-hydroxy-1-[2-([5-[(2R)-1-[(2S,4R)-4-hydroxy-2-[[(1S)-1-[4-(4-methyl-1,3-thiazol-5-yl)phenyl]ethyl]carbamoyl]pyrrolidin-1-yl]-3-methyl-1-oxobutan-2-yl]-1,2-oxazol-3-yl]oxy)ethyl]piperidine-4-carboxamide], on HiBit-BRG1, the DC50 was above 100 nM and the Dmax was above 75%. Further, at HiBiT-BRM, the “BRM HiBit Degradation Maximum (%)” value was “A (“A” indicates maximum degradation ≥75%)” and the DC50 is above 10 nM.

For `Nc1nnc(-c2ccccc2O)cc1OCCc1ccc(C(=O)NCCCCCCCCNc2cccc3c2CN(C2CCC(=O)NC2=O)C3=O)cc1` (stereo not drawn) [Compound 56], at HiBit-BRG1, the DC50 is above 1000 nM and the Dmax is below 50%. In addition, at HiBiT-BRM, the “BRM HiBit Degradation Maximum (%)” value is listed as “C (“C” indicates maximum degradation <50%)” and the DC50 is above 1000 nM.

As for `Cc1ncsc1-c1ccc(CNC(=O)[C@@H]2C[C@@H](O)CN2C(=O)[C@@H](NC(=O)CCN2C[C@@H]3CN(C(=O)c4ccc(CCOc5cc(-c6ccccc6O)nnc5N)cc4)C[C@@H]3C2)C(C)(C)C)cc1` [Compound 203, (2S,4R)-1-((2S)-2-(3-(5-(4-(2-((3-amino-6-(2-hydroxyphenyl)pyridazin-4-yl)oxy)ethyl)benzoyl)hexahydropyrrolo[3,4-c]pyrrol-2(1H)-yl)propanamido)-3,3-dimethylbutanoyl)-4-hydroxy-N-(4-(4-methylthiazol-5-yl)benzyl)pyrrolidine-2-carboxamide], on HiBit-BRG1, the DC50 was above 1000 nM and the Dmax is below 50%. Further, at HiBiT-BRM, the “BRM HiBit Degradation Maximum (%)” value is “B (“B” indicates maximum degradation ≥50%)” and the DC50 was above 1000 nM.

Values taken from patent US20230150974A1 (Foghorn Therapeutics Inc., priority 2020, published 2023).
